# Laboratory results: US8906916B2, “Pyrimidine derivatives as FAK inhibitors” (Merck Patent GmbH, priority 2010, dated 2014)
# Molecular target: T1, FAK (Homo sapiens, UniProt Q05397)
# T1 construct: HT29 cells are sown out with 30,000 cells per well; endogenous in cells; host or cells: HT29
# Assay: Cellular testing of FAK kinase inhibitors: autophosphorylation of FAK at tyrosine 397 in HT29 cells (Luminex)
# Type: cell-based
# Settings: FAK inhibition, P-Y397-FAK in HT29 cells, 30 min, serum-free
# Experimental: Method for the Cellular Testing of FAK Kinase Inhibitors
# For analysis of the cellular activity of FAK, the extent of autophosphorylation of FAK at tyrosine 397 is determined with the aid of a Luminex-based assay in the 96-well format. HT29 cells are sown out with 30,000 cells per well in 100 μl of medium (90% of DMEM/10% of FCS) and incubated on the following day for 30 min with a serial dilution of the test substance (7 concentrations) under serum-free conditions. The cells are subsequently lysed using 90 μl of lysis buffer (20 mM tris/HCl pH 8.0, 150 mM NaCl, 1% of NP40, 10% of glycerol, 1% of phosphatase inhibitor II, 20 mM p-glycerol phosphate, 0.1% of protease inhibitor cocktail III, 0.01% of benzonase) per well, and the lysates are separated off from insoluble cell constituents by means of centrifugation through a 96-well filter plate (0.65 μm). The lysates are incubated at 4° C. overnight with shaking with Luminex beads to which an anti-total FAK antibody is coupled. The detection is carried out on the following day by addition of a P-Y397-FAK antibody and a species-specific PE-labelled secondary antibody. P-Y397-FAK is detected by measurement in the Luminex100 instrument by determination of 100 events per cavity in a measurement time of 60 sec. As pharmacological blank, the signals obtained from cells treated with 30 μM of an FAK reference inhibitor are subtracted from all other batches. The control value used for maximum phosphorylation of FAK at Y397 are the signals from cells treated only with the solvent (0.3% of DMSO). The values of the batches treated with test substance are calculated therefrom as percent of control, and IC50 values are determined by means of Assay Explorer.
# T1 sequence (Q05397 whole entry): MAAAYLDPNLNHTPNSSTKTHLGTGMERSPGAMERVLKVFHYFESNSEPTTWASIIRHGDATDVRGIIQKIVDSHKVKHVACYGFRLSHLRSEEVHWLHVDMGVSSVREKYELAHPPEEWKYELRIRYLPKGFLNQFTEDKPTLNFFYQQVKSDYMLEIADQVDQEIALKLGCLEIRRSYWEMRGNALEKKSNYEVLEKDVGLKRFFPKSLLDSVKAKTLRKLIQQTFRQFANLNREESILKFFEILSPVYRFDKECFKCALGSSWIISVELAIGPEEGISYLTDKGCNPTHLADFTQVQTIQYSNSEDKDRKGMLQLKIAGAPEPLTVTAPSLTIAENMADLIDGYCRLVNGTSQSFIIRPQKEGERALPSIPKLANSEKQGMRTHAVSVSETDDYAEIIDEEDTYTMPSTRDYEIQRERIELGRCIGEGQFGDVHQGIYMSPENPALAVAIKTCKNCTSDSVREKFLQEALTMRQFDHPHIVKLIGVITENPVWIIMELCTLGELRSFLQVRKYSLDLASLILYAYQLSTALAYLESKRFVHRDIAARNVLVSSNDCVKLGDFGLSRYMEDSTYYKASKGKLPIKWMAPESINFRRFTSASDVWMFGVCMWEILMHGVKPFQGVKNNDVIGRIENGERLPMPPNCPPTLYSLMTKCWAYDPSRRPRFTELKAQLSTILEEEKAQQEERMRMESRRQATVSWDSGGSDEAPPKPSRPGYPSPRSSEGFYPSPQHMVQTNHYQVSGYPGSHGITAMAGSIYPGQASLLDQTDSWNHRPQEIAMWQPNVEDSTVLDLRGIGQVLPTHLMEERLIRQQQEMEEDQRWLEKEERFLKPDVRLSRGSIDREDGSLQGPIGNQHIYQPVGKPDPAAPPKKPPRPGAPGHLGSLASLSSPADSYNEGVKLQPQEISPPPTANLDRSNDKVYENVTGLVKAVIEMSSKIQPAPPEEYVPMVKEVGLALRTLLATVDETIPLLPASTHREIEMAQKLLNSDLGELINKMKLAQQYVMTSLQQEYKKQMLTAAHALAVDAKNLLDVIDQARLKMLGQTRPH
row,IC50,SMILES
1,3 to 50 µM,"CN(c1ccccc1CCc1ccnc(Nc2ccc3c(c2)CCC(=O)N3)n1)S(C)(=O)=O [A2, N-methyl-N-(2-{2-[2-(2-oxo-1,2,3,4-tetrahydroquinolin-6-ylamino)pyrimidin-4-yl]ethyl}phenyl)methanesulfonamide]"
2,3 to 50 µM,CN(c1ncccc1CCc1ccnc(NCc2ccc(=O)[nH]n2)n1)S(C)(=O)=O [A24]
3,3 to 50 µM,CN(c1ncccc1CCc1ccnc(Nc2ccc3c(c2)n(C)c(=O)n3C)n1)S(C)(=O)=O [A25]
4,3 to 50 µM,CC(=O)N1CCc2cc(Nc3nccc(CCc4ccccc4N(C)S(C)(=O)=O)n3)ccc21 [A31]
5,0.3 to 3 µM,CN(c1ccccc1CCc1ccnc(Nc2ccc(NC(=O)c3cccnc3)cc2)n1)S(C)(=O)=O [A34]
6,0.3 to 3 µM,CN(c1ccccc1CCc1ccnc(Nc2ccc(N3CCCCC3=O)c(C#N)c2)n1)S(C)(=O)=O [A37]

# Molecular target: focal adhesion kinase (FAK) (Homo sapiens, UniProt Q05397)
# Sequence (Q05397 whole entry): as above
# Assay: FAK kinase assay (autophosphorylation), 384-well flashplate
# Type: biochemical
# Settings: FAK inhibition, enzymatic autophosphorylation assay, 1 μM ATP
# Experimental: FAK Kinase Assay (Autophosphorylation)
# The focal adhesion kinase (FAK) assay is carried out either as a 384-well flashplate assay (for example for Topcount measurements) or as a 384-well image flashplate assay (for LEADseeker measurements). 2 nM FAK, 400 nM biotinylated substrate (His-TEV-hsFAK (31 686)(K454R) x biotin) and 1 μM ATP (to which […] of 33P-ATP/well has been added) are incubated at 30° C. for 2 hours with or without test compound in a total volume of 50 μl (60 mM Hepes, 10 mM MgCl2, 1.2 mM dithiothreitol, 0.02% of Brij35, 0.1% of BSA, pH 7.5). The reaction is stopped using 25 μl of 200 mM EDTA. After 30 min at 30° C., the liquid is removed, and each well is washed three times with 100 μl of 0.9% sodium chloride solution. Non-specific reaction is determined in the presence of 1 μM EMD 1076893/0(PF-562271). The radioactivity is measured using Topcount (in the case of the use of flashplates) or using LEADseeker (in the case of the use of image flashplates). Results (for example IC50 values) are calculated using, for example, a Symyx Assay Explorer.
row,IC50,SMILES
1,3 to 50 µM,"CN(c1ccccc1CCc1ccnc(Nc2ccc(S(C)(=O)=O)cc2)n1)S(C)(=O)=O [A1, N-(2-{2-[2-(4-methanesulfonylphenylamino)pyrimidin-4-yl]ethyl}-phenyl)-N-methylmethanesulfonamide]"
2,< 0.3 µM,"CN(c1ccccc1CCc1ccnc(Nc2ccc3c(c2)CCC(=O)N3)n1)S(C)(=O)=O [A2, N-methyl-N-(2-{2-[2-(2-oxo-1,2,3,4-tetrahydroquinolin-6-ylamino)pyrimidin-4-yl]ethyl}phenyl)methanesulfonamide]"
3,3 to 50 µM,CS(=O)(=O)c1cccc(CCc2ccnc(Nc3ccc4c(c3)CCC(=O)N4)n2)c1 [A3]
4,< 0.3 µM,CN(c1ccccc1CCc1ccnc(Nc2ccc3c(c2)CC(=O)N3)n1)S(C)(=O)=O [A5]
5,0.3 to 3 µM,CN(c1ncccc1CCc1ccnc(Nc2ccc3c(c2)CC(=O)N3)n1)S(C)(=O)=O [A6]
6,0.3 to 3 µM,CN(c1ncccc1CCc1ccnc(Nc2ccc3c(c2)CCC(=O)N3)n1)S(C)(=O)=O [A7]
7,0.3 to 3 µM,N#CCc1ccccc1CCc1ccnc(Nc2ccc3c(c2)CC(=O)N3)n1 [A9]
8,0.3 to 3 µM,N#CCc1ccc(F)cc1CCc1ccnc(Nc2ccc3c(c2)CC(=O)N3)n1 [A11]
9,0.3 to 3 µM,N#CC1(c2ccccc2CCc2ccnc(Nc3ccc4c(c3)CC(=O)N4)n2)CCC1 [A13]
10,3 to 50 µM,"N#CC1(c2ncccc2CCc2ccnc(Nc3ccc4c(c3)CC(=O)N4)n2)CNC1 [A16, 3-(3-{2-[2-(2-oxo-2,3-dihydro-1H-indol-5-ylamino)pyrimidin-4-yl]ethyl}pyridin-2-yl)azetidine-3-carbonitrile]"
11,0.3 to 3 µM,CN(c1ncccc1CCc1ccnc(Nc2ccc3[nH]c(=O)oc3c2)n1)S(C)(=O)=O [A20]
12,0.3 to 3 µM,CN1C(=O)Cc2cc(Nc3nccc(CCc4cccnc4N(C)S(C)(=O)=O)n3)ccc21 [A21]
13,3 to 50 µM,CN(c1ncccc1CCc1ccnc(Nc2cccc(C#N)c2)n1)S(C)(=O)=O [A22]
14,0.3 to 3 µM,CN(c1ncccc1CCc1ccnc(Nc2ccc3c(c2)n(C)c(=O)n3C)n1)S(C)(=O)=O [A25]
15,0.3 to 3 µM,CN(c1ccccc1CCc1ccnc(Nc2ccc3[nH]c(=O)oc3c2)n1)S(C)(=O)=O [A27]
16,0.3 to 3 µM,CN(c1ccccc1CCc1ccnc(Nc2cccc(C#N)c2)n1)S(C)(=O)=O [A28]
17,3 to 50 µM,CN(c1ccccc1CCc1ccnc(Nc2ccc(F)c(C#N)c2)n1)S(C)(=O)=O [A29]
18,0.3 to 3 µM,CN(c1ccccc1CCc1ccnc(Nc2ccc3sc(=O)[nH]c3c2)n1)S(C)(=O)=O [A30]

row,IC50,SMILES
1,< 0.3 µM,CC(=O)N1CCc2cc(Nc3nccc(CCc4ccccc4N(C)S(C)(=O)=O)n3)ccc21 [A31]
2,0.3 to 3 µM,CNC(=O)Cc1ccc(Nc2nccc(CCc3ccccc3N(C)S(C)(=O)=O)n2)cc1 [A32]
3,0.3 to 3 µM,CN(c1ccccc1CCc1ccnc(Nc2ccc(N3CCOCC3=O)cc2)n1)S(C)(=O)=O [A33]
4,< 0.3 µM,CN(c1ccccc1CCc1ccnc(Nc2ccc(NC(=O)c3cccnc3)cc2)n1)S(C)(=O)=O [A34]
5,0.3 to 3 µM,CN(c1ccccc1CCc1ccnc(Nc2ccc(N3CCCC3=O)cc2)n1)S(C)(=O)=O [A35]
6,0.3 to 3 µM,CN(c1ccccc1CCc1ccnc(Nc2cc(Cl)c(N3CCCC3=O)c(Cl)c2)n1)S(C)(=O)=O [A36]
7,0.3 to 3 µM,CN(c1ccccc1CCc1ccnc(Nc2ccc(N3C(=O)c4ccccc4C3=O)cc2)n1)S(C)(=O)=O [A38]
8,0.3 to 3 µM,CN(c1ncccc1CCc1ccnc(Nc2ccc(N3CCCC3=O)cc2)n1)S(C)(=O)=O [A39]
9,0.3 to 3 µM,CN(c1ncccc1CCc1ccnc(Nc2ccc(NC(=O)c3cccnc3)cc2)n1)S(C)(=O)=O [A40]
10,0.3 to 3 µM,CN(c1ncccc1CCc1ccnc(Nc2ccc(N3CCOCC3=O)cc2)n1)S(C)(=O)=O [A41]
11,0.3 to 3 µM,CN(c1ncccc1CCc1ccnc(Nc2ccc(N3C(=O)c4ccccc4C3=O)cc2)n1)S(C)(=O)=O [A43]
12,< 0.3 µM,Cc1cnc(N(C)S(C)(=O)=O)c(CCc2ccnc(Nc3ccc4c(c3)CC(=O)N4)n2)c1 [A44]
13,< 0.3 µM,N#CC1(c2ccc(F)cc2CCc2ccnc(Nc3ccc4c(c3)CC(=O)N4)n2)CCC1 [A45]
14,0.3 to 3 µM,N#CC1(c2cc(F)ccc2CCc2ccnc(Nc3ccc4c(c3)CC(=O)N4)n2)CCC1 [A46]
15,0.3 to 3 µM,O=C1CCc2cc(Nc3ncc(Br)c(CCc4ccccc4)n3)ccc2N1 [A101]
16,0.3 to 3 µM,O=C1Cc2cc(Nc3ncc(C(F)(F)F)c(CCc4ccccc4)n3)ccc2N1 [A102]
17,0.3 to 3 µM,O=C1CCc2cc(Nc3ncc(C(F)(F)F)c(CCc4ccccc4)n3)ccc2N1 [A103]
